According to US20210276960A1, “INHIBITORS OF TISSUE TRANSGLUTAMINASE 2 (TG2) AND USES THEREOF” (Northwestern University, priority 2020, published 2021):

Key:
Solubility assay = assay type: physicochemical; details: pH=7.4 PBS buffer, 2% DMSO
Protocol: Solubility was measured in a 384-well plate using a Synergy HTX plate reader. Starting with a 50 mM DMSO stock solution of test compounds, dilutions were made from 1 to 500 μM final concentrations using acetonitrile, keeping the final DMSO concentration at 2%. UV absorption was measured at 254 nm and absorbance versus concentration was plotted to give a standard curve. A DMSO stock of test compound was also diluted with pH=7.4 PBS buffer to give a final concentration of 250 μM containing 2% DMSO. This mixture was stirred on a plate shaker for 1 hr after which it was centrifuged at 2500 rpm for 3 min. 50 μL of the supernatant was removed, transferred to a 384-well plate, and the UV absorbance at 254 nm was measured. Absorbance of the test compound in PBS buffer was analyzed with the standard curve to determine solubility.

[1] = system: FAK phosphorylation in SKOV3 cells; test: Western blotting, FAK phosphorylation dose response; assay type: cell-based; details: increasing doses (TG53 8 to 16 μM), 2 hours after adhesion to FN
Protocol: FIG. 33. Dose response effects induced by TG2-FN inhibitors on FAK phosphorylation.
Lysates were separated by SDS-PAGE, transferred onto PVDF membranes (Bio-Rad), incubated with primary and secondary antibodies and developed by using SuperSignal™ West Femto Maximum Sensitivity Substrate and Pierce™ ECL Western Blotting Substrate, respectively (Thermo Scientific). Images were obtained by using the ImageQuant LAS 4000 mini-imager (GE Healthcare, Pittsburgh, Pa.). Densitometry analysis was performed using Quantity One software (Bio-Rad) and results were normalized to GAPDH loading controls. DMSO 0 min time point was considered as 1 for comparative analysis.

[2] = system: integrin β1 on OVCAR5 cells; test: Flow cytometry of surface integrin β1, OVCAR5; assay type: cell-based, human; details: serial concentrations
Protocol: FIG. 32. Flow cytometry analysis of integrin 31 plasma membrane expression. […] OC cells were pre-incubated 1 h with serial dilutions of MT4 (as compared to TG53- and DMSO-treated cells), and left to attach for on either plastic (P) or fibronectin (FN) coated 6-well plates. Anti-integrin 31 antibodies (0.5 μg/mL) were used as control.

OVCAR5 cells = test: TIRF microscopy of β1 integrin distribution; assay type: cell-based, human; details: 1 μM or 5 μM, 1 h pre-treatment
Protocol: For assessing the potential effect of SMIs on 01 integrin distribution at the interface between cells and the FN matrix, OVCAR5 cells were treated for 1 h with either TG53 or MT-4 in serum-free media at 37° C., and then seeded onto FN-coated glass bottom microwell dishes (MatTek Corp. Ashland, Mass.) for 45 minutes at 37° C. Samples were fixed in PFA and blocked in 1% BSA. 01 integrin receptors were detected by using anti-01 integrin antibodies (clone P5D2, Chemicon, #MAB1959, 1:100) and AlexaFluor 568-conjugated anti-mouse secondary antibodies, while actin was labeled using Alexa Fluor 488-conjugated phalloidin. Cells were imaged with a Nikon Ti2 Microscope equipped with a Photometrics Prime 95B camera using a Nikon Plan Apo 100×1.49 NA TIRF objective.

[3] = system: OVCAR5 cells attachment onto FN; test: Early attachment assay with IF staining; assay type: cell-based, human; details: 1 μM, 72 hours pre-treatment, 30 minutes after seeding
Protocol: OVCAR5 cells were seeded(1×10^5 cells/well) in 6-well plates (Denville Scientific) and treated for 72 hrs with 1 μM MT-4, TG53 or vehicle control (DMSO). After drug exposure, cells were detached using Cellstripper (cellgro, #25-056-CI, CORNING, Manassas, Va., USA), centrifuged, and counted. Before seeding for either confocal microscopy or western blotting, they were incubated in serum free media in the presence of drugs for 15-90 minutes, as stated in the figure legends.
In order to analyze cell adhesion complex proteins expression and localization upon early attachment, cells were treated as stated above and then seeded onto FN-coated cover slips for 30 minutes at 37° C. Samples were fixed in 4% p-formaldehyde (PFA) and permeabilized with 0.2% Triton-X-100. After blocking, focal contacts were identified by using anti-vinculin antibodies, activation of integrins signaling pathway was assessed by antibodies against phosphorylated focal adhesion kinase (FAK), while actin cytoskeleton was labeled by Alexa Fluor 488-conjugated phalloidin (Life Technologies, #A12379). Nuclei were stained with 1:10000 Hoechst (Thermo Scientific) and specimens were mounted in Prolong Gold anti-fadereagent (Life Technologies). Cells were analyzed by laser scanning using a Nikon A1RGaAsPConfocal Laser Microscope. For co-localization analyses, SKOV3 cells were treated with DMSO (control) or TG53 (1 μM) and plated on FN-coated chamber slides (BD Biosciences) for 72 hrs. IF analysis was performed as previously described (Condello et al., 2013b). Briefly, after fixation, permeabilization and blocking, cells were incubated overnight with p-FAK (Y576/577), c-Src, p-Src (Y416), integrin β1 or TG2 primary antibodies in blocking buffer at 4° C., followed by 1 h incubation with Cy5-conjugated anti-mouse secondary antibody (1:500; Zymed Laboratories; South San Francisco, Calif., USA) or Alexa Fluor 488 anti-rabbit secondary antibody (1:1000; Molecular Probes, Eugene, Oreg., USA) at RT. Isotype-specific IgG was used as a negative control. Nuclei were visualized by 4′,6-diamidino-2-phenylindole (DAPI) staining (Vectashield; Vector Laboratories, Burlingame, Calif., USA). Analysis was done using an LSM 510 META confocal multiphoton microscope system (Carl Zeiss Inc., Thomwood, N.Y., USA) under UV excitation at 630 nm (for Cy5), 488 nm (for Alexa Fluor 488), and 340 nm (for DAPI) and using a 60× magnification objective. Colocalization percentage was calculated by normalizing the pixels corresponding to Cy5 or Alexa Fluor 488 emissions to DAPI pixels in the same cell, followed by merging area of green with area of red and determination of average of overlap areas. A Student' t test was calculated to determine statistical significance of differences between drug treated and DMSO control treated cells.

Compound	solubility at 1 h (Solubility assay)	FAK phosphorylation [1]	β1 integrin receptors at the plasma membrane [2]	β1 integrin distribution at the interface with FN (OVCAR5 cells)	FAK phosphorylation (IF) [3]	number of focal contacts with FN-coated substrate (vinculin) [3]	solubility at 1 h (Solubility assay; aqueous buffer, kinetic from dmso stock)
COc1ccc(Cl)cc1C(=O)Nc1ccc(Nc2nc(C)cc(N(C)C)n2)cc1 [TG53]	<5 µM	attenuated	did not show significant downregulation	modest displacement of integrin receptors towards the cell perimeter	decreased	decreased	
Cc1cc(N(C)C)nc(Nc2ccc(NC(=O)Cc3ccccc3)cc2)n1 [MT-4]		dose-dependent inhibition	did not show significant downregulation	enhanced 31 integrin transposition towards the extreme edge of the cell	decreased	decreased	91.5 µM
